From US20070191287A1, “D-ribose for improving depression-like symptoms” (priority 2004, published 2007)

Assays:
[1] = system: reserpine-induced hypothermia; test: reserpine-induced hypothermia competitive test; format: in vivo, mice (ddY-strain)
Procedure: Male 8 ddY-strain mice (5 weeks old, purchased from Japan SLC, Inc.) were used for each group as test animals. The animals were kept under the same conditions as in Example 1. The experiment was carried out on the four groups such as the groups treated with D-ribose at doses of 30 mg/kg, 100 mg/kg, 300 mg/kg, and the control group. The animals were grouped based on the body temperature (rectal temperature) which had been previously measured prior to the experiment so that the average body temperature of each group becomes equal. D-ribose was dissolved in distilled water and administered orally at 10 ml/kg once a day and repeatedly for one week. To the control group, distilled water was administered orally instead of aqueous D-ribose solution. The reserpine-induced hypothermia competitive test was a modification of the method of Wachtel (cf., Neuropharmacology, 22 (3), p. 267-272 (1983)). Namely, a solution of reserpine (Daiichi Pharmaceutical Co. Ltd.) in an aqueous propylene glycol solution was subcutaneously administered to the mice in each group at a dose of 1 mg/kg (i.e., in an amount of 10 ml/kg) just before administration of a test compound or distilled water, and subsequently, D-ribose or distilled water were administered orally to the mice, and then the rectal temperature of each mouse was measured on 1, 2, 4, 6 and 8 hours after administration of D-ribose or distilled water. In the experiment, the reserpine treatment and the administration of the test compound were carried out during from 10:00 AM to 11:00 AM. The results were expressed as mean±standard error in each group. The significant differences between the groups were studied by Bonferroni/Dun multiple comparison test with a significance level of 5%. Male 8 ddY-strain mice (5 weeks old, purchased from Japan SLC, Inc.) were used for each group as test animals. The animals were kept under the same conditions as in Example 1. […] To the control group, distilled water was administered orally. The grouping, the administration of reserpine and the measurement of body temperature were carried out in the same manner as in Example 3. The results were expressed as mean±standard error for each group. The significant differences between the groups were studied by Bonferroni/Dunn multiple comparison test with a significance level of 5%.

[2] = system: mice; test: forced swimming test in mice; format: in vivo, mice (ddY-strain)
Procedure: Male 10 ddY-strain mice (5 weeks old, purchased from Japan SLC, Inc.) were used for each group as test animals. The animals were housed in groups of 20 mice in a plastic-made cage (26×43×16 cm; Clea Japan Inc.), and they were kept in the animal room maintained at 23±2° C. with 30 to 80% humidity, and illuminated for 12 hr (6:30 to 18:30). The animals were allowed free access to pellet diets (CRF-1, Oriental Yeast, Co., Ltd.), and tap water.
The experiment was carried out on the four groups, such as the groups treated with D-ribose at doses of 30 mg/kg, 100 mg/kg, 300 mg/kg, and the control group. The animals were grouped based on the body weights which had been previously measured prior to the experiment so that the average body weight of each group becomes equal. D-ribose was dissolved in distilled water and administered orally at 10 ml/kg once a day and repeatedly for one week in mice. To the control group, distilled water was administered orally instead of aqueous D-ribose solution. […] Briefly, the animals were forced to swim twice, i.e., for 15 minutes prior to the treatment of a test compound or distilled water on the day before the final administration, and further for 5 minutes one hour after the final administration on the following day. That is, the mice were forced to swim in a clear polycarbonate-made measuring cylinder (internal diameter: 10 cm, height: 25 cm) containing water up to a height of 10 cm at a temperature of 250° C., and the duration of the immobility during the second swimming was recorded.
The results were expressed as mean±standard error for each group. The significant differences between the groups were studied by Dunnett's multiple comparison test with a significance level of 5%.
Male10 ddY-strain male mice (5 weeks old, purchased from Japan SLC, Inc.) were used for each group as test animals. The animals were kept under the same conditions as in Example 1. The experiment was carried out on the four groups, such as the groups treated with D-ribose 100 mg/kg, potassium magnesium aspartate (Mg.K aspartate) 50 mg/kg, and D-ribose 100 mg/kg+Mg.K aspartate 50 mg/kg, and the control group. The animals were grouped based on the body weights which had been previously measured prior to the experiment so that the average body weight of each group becomes equal. D-ribose and potassium magnesium aspartate were dissolved in distilled water and administered orally at 10 ml/kg once a day and repeatedly for one week. […]
Male 10 ddY-strain mice (5 weeks old, purchased from Japan SLC, Inc.) were used for each group as test animals. The animals were grouped based on the body weights which had been previously measured prior to the experiment so that the average body weight of each group becomes equal. […]

[3] = system: rats; test: soaking fatigue test in rats; format: in vivo, rats (SD-strain); conditions: orally twice a day divided, 5 days
Procedure: Male 10 SD-strain rats (7 weeks old, purchased from Japan SLC, Inc.) were used for each group as test animals. The animals were grouped based on the body weights which had been previously measured prior to the experiment so that the average body weight of each group becomes equal. The animals were kept under the same conditions as in Example 1. The experiment was carried out on the 3 groups, such as the groups treated with D-ribose at doses of 300 mg/kg, 1000 mg/kg, and the control group. To the D-ribose-treated groups, D-ribose was dissolved in distilled water for injection in a predetermined amount for each body weight, and the resulting aqueous solution was mandatorily administered orally to the rats at a dose of 10 ml/kg. To the control group, distilled water for injection was mandatorily administered orally instead of aqueous D-ribose solution at a dose of 10 ml/kg.
The soaking fatigue test in rats was carried out by a modification of the method of Tanaka (cf., Igaku-no-Ayumi, 204 (5), 362-364 (2003)). Briefly, the rats in each group were kept in a cage where water at 23±1° C. was filled at a water depth of about 1.5 cm for 5 days, during which D-ribose was orally administered to the rats twice a day at 10 A.M. and 3 P.M. with divided amount of the daily dose (300 mg/kg or 1000 mg/kg), i.e., at each time 150 mg/kg or 500 mg/kg, respectively, for 5 days in a row. Twenty-four hours after the last administration, the rats were loaded with a weight (about 20 g, about 8°% of the body weight) at a position of about ⅘ distant from the root. Each rat was forced to swim individually in a clear acrylic cylindrical water bath (inner diameter: 25 cm, height: 60 cm) containing warm water (25±2° C., water-depth: 50 cm). The time from the beginning of swimming until the nose of the rat sank down into the water for more than 10 seconds was measured.
The results were expressed as mean±standard error for each group. The significant differences between the groups were studied by Bonferroni/Dun multiple comparison test with a significance level of 5%.

[4] = system: human; test: evaluation of effect of maintaining concentration in human (random number table test); format: in vivo; conditions: healthy volunteers; D-ribose 2.2 g/day for 7 days, crossover vs dextrin control
Source text: The effect of maintaining concentration by D-ribose in human can be evaluated by the test using a random number table (cf., Sports Mental Training for Winning Games, written by Yoshihide TAKAHATA, published by NATSUME CO, LTD., 2003).
Twenty healthy volunteers are grouped into two groups, i.e., the D-ribose 2.2 g/day-treated group, and the control group. The volunteers in the D-ribose 2.2 g/day-treated group take an aqueous solution of D-ribose (2.2 g), a roasted green tea extra (0.24 g) and sucralose (2 mg) in distilled water for injection per day. The volunteers in the control group take an aqueous solution of dextrin (2.2 g), a roasted green tea extra (0.24 g) and sucralose (2 mg) in distilled water per day. […]
The evaluation test for concentration power is carried out as follows. […] Then, the number of marked cells is compared between both groups and the concentration power is evaluated therefrom.
Further, after one-month washout period from the above evaluation test for concentration power, the volunteers in both groups are exchanged each other, and then the same test is carried out again on the volunteers. Combining the results of these two tests, the effect of maintaining concentration by D-ribose is comprehensively evaluated.

`O=C[C@H](O)[C@H](O)[C@H](O)CO` [D-ribose] was tested, and the “reserpine-induced hypothermia (rectal temperature)” value (shortened to “reserpine-induced hypothermia”) ([1]; Example 3, 30 mg/kg orally once a day for one week, reserpine 1 mg/kg s.c.) was “not significantly alleviated”, the “reserpine-induced hypothermia” value ([1]; Example 3, 100 mg/kg orally once a day for one week, 4 or 6 hours after administration) was “significantly and nearly dose-relatively alleviated” and the “reserpine-induced hypothermia” value ([1]; Example 3, 300 mg/kg orally once a day for one week, 4 or 6 hours after administration) was “significantly and nearly dose-relatively alleviated”. For the same compound, the “reserpine-induced hypothermia” value ([1]; Example 4, D-ribose alone 100 mg/kg orally, at 4 and 6 hours after treatment) was “significantly alleviated”, the duration of immobility ([2]; Comparative Example 1, D-ribose 100 mg/kg and 300 mg/kg orally for one week) was “dose-depending reduction” and the duration of immobility ([2]; Example 1, 300 mg/kg orally once a day for one week, vs control group) was “significantly reduced”. The duration of immobility ([2]; Example 2, D-ribose 100 mg/kg alone, orally once a day for one week) was “not significantly reduced”, the “anti-fatigue effect (duration of swimming)” value ([3]; 300 mg/kg daily dose, swim 24 h after last administration) was “any significant anti-fatigue effect was observed” and the “anti-fatigue effect (duration of swimming)” value ([3]; 1000 mg/kg daily dose, stress-related fatigue caused by breeding under soaking) was “significant anti-fatigue effect”. The “duration of swimming longer than that in the control group” value ([3]; 1000 mg/kg daily dose, swim 24 h after last administration) was “about 70%” and the “concentration power (number of marked cells)” value [4] was “dominantly maintained”.

`N[C@@H](CC(=O)O)C(=O)O.[K+].[Mg+2]` [Mg.K aspartate, potassium magnesium aspartate] was tested, and the duration of immobility ([2]; Example 2, Mg.K aspartate 50 mg/kg alone, orally once a day for one week) was “not significantly reduced”.
